The values below come from US8420644B2, “Pharmaceutical composition intended for the prevention or for the treatment of cerebral oedemas” (Biocodex, priority 2005, dated 2013).

In data set [1] the test system is cerebral edema induced triethyltin (TET) chloride. The settings on record: administered during the intoxication, measured after 5 days (Linee et al., 1984); cited from earlier work.
Data set [2] relates to ambulatory activity disrupted by triethyltin (TET). The conditions noted are these: for Ambulatory activities: no TET.
The format of data set [3] is in vivo, rat.
Data set [4] deals with cerebral oedema induced by triethyltin (TET). The conditions noted are these: rat, in vivo.
Where [5] appears, read: moclobemide 2 × 50 mg/kg/day + TET 3 mg/kg/day, day 4.
Setting [6] is: moclobemide 2 × 50 mg/kg/day + TET 3 mg/kg/day, day −3, before any treatment.
Setting [7] is: moclobemide 2 × 50 mg/kg/day, TET 0, day 4.
The mark [8] stands for this setting: moclobemide 2 × 50 mg/kg/day, TET 0, day −3, before any treatment.
Where [9] appears, read: moclobemide 2×100 mg/kg/day + TET.
Where [10] appears, read: moclobemide 2 × 100 mg/kg/day + TET 3 mg/kg/day, day 4.
The mark [11] stands for this setting: moclobemide 2 × 100 mg/kg/day + TET 3 mg/kg/day, day −3, before any treatment.

Where two headings read alike, the source gives them in different places.

For (−)eburnamonine, the “Activity in the preventive protocol of intoxication with tin” value (“Activity in the preventive protocol” below) in data set [1] is “active”.

Take moclobemide: the “Effect of TET on the ambulatory activities” value in data set [2] (moclobemide 2×50 mg/kg/day + TET) and in data set [2] (setting [9]) was “does not suppress the effect of TET” throughout. The “Horizontal ambulatory activity (means ± esm)” value in data set [2] (setting [5]) is on record as 474 ± 70 arbitrary unit; in data set [2] (setting [6]), 2319 ± 248 arbitrary unit; in data set [2] (setting [7]), 1483 ± 163 arbitrary unit; in data set [2] (setting [8]) it was 2754 ± 415 arbitrary unit; in data set [2] (setting [10]), 497 ± 139 arbitrary unit; in data set [2] (setting [11]), 2549 ± 221 arbitrary unit. Moreover, the “Total ambulatory activity (means ± esm)” value was 844 ± 88 arbitrary unit in data set [2] (setting [5]); 3001 ± 314 arbitrary unit in data set [2] (setting [6]); 2000 ± 224 arbitrary unit in data set [2] (setting [7]); 3840 ± 323 arbitrary unit in data set [2] (setting [8]); 3332 ± 235 arbitrary unit in data set [2] (setting [11]). The “Vertical ambulatory activity (means ± esm)” value came to 279 ± 37 arbitrary unit in data set [2] (setting [6]) and 279 ± 27 arbitrary unit in data set [2] (setting [11]). The Ambulatory activities result in data set [2] (moclobemide 2×50 mg/kg/day for 5 days) is on record as “does not lead to any significant effect on the ambulatory activities”; in data set [2] (moclobemide 2×100 mg/kg/day, day 4), “significantly decreases the ambulatory activities at day 4”. Moreover, the “Body weight (grammes ± esm)” value in data set [3] (moclobemide 2 × 50 mg/kg/day + TET 3 mg/kg/day, day 0) amounted to 245 ± 3 grammes; in data set [3] (moclobemide 2 × 50 mg/kg/day + TET 3 mg/kg/day, day 1) it was 246 ± 3 grammes; in data set [3] (moclobemide 2 × 50 mg/kg/day + TET 3 mg/kg/day, day 2), 249 ± 3 grammes; in data set [3] (moclobemide 2 × 50 mg/kg/day + TET 3 mg/kg/day, day 3) it was 253 ± 4 grammes; in data set [3] (moclobemide 2 × 50 mg/kg/day + TET 3 mg/kg/day, day −3) it was 216 ± 3 grammes; in data set [3] (moclobemide 2 × 100 mg/kg/day + TET 3 mg/kg/day, day 0) it was 243 ± 4 grammes. Also, the “Body weight (grammes ± esm)” value in data set [3] (moclobemide 2 × 100 mg/kg/day + TET 3 mg/kg/day, day 2) is 244 ± 4 grammes; in data set [3] (moclobemide 2 × 100 mg/kg/day + TET 3 mg/kg/day, day 3), 244 ± 4 grammes; in data set [3] (setting [10]), 241 ± 5 grammes; in data set [3] (moclobemide 2 × 100 mg/kg/day + TET 3 mg/kg/day, day −3), 203 ± 5 grammes. In addition, in data set [3] (setting [9]), the “Drop in weight between day 3 and day 4 induced by the TET” value was “prevents the drop in weight induced by the TET”. In addition, the values for the Variation in percentage in data set [4] (50 mg/kg/day) and in data set [4] (100 mg/kg/day) were −0.01% and −0.14%, respectively.

For dihydroergotoxin, in data set [1], the “Activity in the preventive protocol” value is “active”.

`CC[C@]12CCCN3CCc4c(n(c5ccccc45)[C@@](O)(C(=O)OC)C1)[C@@H]32` [vincamine]: in data set [1], the “Activity in the preventive protocol” value is on record as “active”.
